Experimental data taken from PMC10451648 (Antibiotics, 2023).
Values after ≈ are worked out from the molar mass of the structure shown. “Also recorded” adds a separate entry of the source. Square brackets hold non-standard residues; d marks the D form. Peptide text beside a SMILES is read from it. Aib = CC(C)(N)C(=O)O

How the values were obtained:
S. aureus NBRC 13276 = format: cell-based, Staphylococcus aureus; conditions: NBRC 13276, 18 h
Description: (§1) The antimicrobial activities of peptides 1–8 against Gram-positive Staphylococcus aureus, Gram-negative Escherichia coli DH5α, Pseudomonas aeruginosa, and multidrug-resistant P. aeruginosa (MDRP) were evaluated. The minimum inhibitory concentration (MIC) against these bacteria was measured as an indicator of antimicrobial activity, and the results are discussed in Table 2.
(§2) One type of Gram-positive bacteria, S. aureus NBRC 13276, and three Gram-negative bacteria, E. coli DH5α, P. aeruginosa NBRC 13275, and MDRP, were selected for the evaluation of the antimicrobial activity of the synthesized peptides. The selected bacterial strains were obtained from the Biological Resource Center, NITE (NBRC; Tokyo, Japan), and Escherichia coli DH5α cells were purchased from BioDynamics Laboratory, Inc. (Tokyo, Japan). The antimicrobial activities of the tested peptides 1–8 against each stain were examined by the standard broth microdilution method, as previously reported. Briefly, the bacteria were seeded and grown overnight at 37 °C on Agar media for other organisms i (Agar medium) and then collected with the media for other organisms ii (liquid medium), according to the 17th revision of Japanese Pharmacopoeia. Next, 10 μL of the peptide solution per well was added to each well of a sterile 96-well plate, and 90 μL per well of inoculation was mixed with 10^4 CFUs (colony forming units) per mL and added to each well, and the plate was incubated for 18 h at 35 °C.

human red blood cells = assay: Hemolysis activity against red blood cells; conditions: human RBCs in 172 mM Tris-HCl pH 7.6, 30 min at 37 °C, absorbance 535 nm; DMSO = 0%, M-Lycotoxin = 100%; final peptide conc. 100 to 0.39
Description: AMPs primarily target microbial membranes, leading to their antimicrobial activity through membrane lysis. However, it is important to consider their potential effects on human cell membranes, as this could raise concerns regarding cytotoxicity. […] Hemolytic activity was assessed by measuring the absorption at 535 nm, which indicates the leakage of red blood cell cytoplasmic contents and hemoglobin.
Human red blood cells (RBCs) were supplied by the Japanese Red Cross Society (Tokyo, Japan). The hemolytic assay of the synthesized peptides was performed as previously reported. Briefly, 5.0 mL of the total erythrocytes were washed three times with 172 mM Tris-HCl buffer (pH = 7.6, wash buffer:WB) and 1.0 mL of precipitated erythrocytes was diluted with 9.0 mL of WB. Then, 0.5 mL of the suspension was diluted in WB, and 50 µL of RBC solution was incubated with 50 µL of each peptide for 30 min at 37 °C (final peptide conc. from 100 to 0.39 μM). The suspensions were then centrifuged at 400 rpm for 5 min. The absorbance of the supernatant was measured at a wavelength of 535 nm. M-Lycotoxin [22], which is a typical hemolytic toxic peptide derived from Wolf spider, was used as a positive control, and the absorbance of the sample from DMSO and M-Lycotoxin treatment was defined as 0 and 100%, respectively.

[1] = test system: multidrug-resistant P. aeruginosa (MDRP); format: cell-based, Pseudomonas aeruginosa; conditions: multidrug-resistant (MDRP, 18 h)
Description: as §1, §2

P. aeruginosa NBRC 13275 = format: cell-based, Pseudomonas aeruginosa; conditions: NBRC 13275, 18 h
Description: as §1, §2

Escherichia coli DH5α = format: cell-based; conditions: broth microdilution, 10^4 CFUs per mL, 18 h at 35 °C; MIC = lowest concentration that completely inhibited bacterial growth; final conc. 0.39 to 100
Description: as §1, §2

Proteinase K = Proteinase K (Parengyodontium album, UniProt P06873); assay: Digestion assay with proteinase K; format: in vitro ADME; conditions: 0.002% (v/v) proteinase K, peptide 1 mM, 37 °C, 24 h; fragments by LC-MS
Description: The chemical stability of 17KKV-Aib (1) was investigated using a digestion assay with proteinase K, which is a widely used representative protease for assessing sensitivity to digestive enzymes. Proteinase K is widely recognized for its ability to cleave peptide bonds on the carboxylic sides of aliphatic, aromatic, or highly hydrophobic amino acids. Peptide 1 was treated with proteinase K for 24 h, and the remaining peptide fragments were evaluated using liquid phase chromatography–mass spectrometry (LC-MS) analysis. […] All the peptides were synthesized using Fmoc-assisted solid-phase methods by Liberty Blue. […]
Each peptide (1 mM) was treated with 0.002% (v/v) Proteinase K, and the mixture was incubated at 37 °C for 2–24 h. […] The residual peptides were assessed by analytical HPLC using an InertSustainSwift C18 column (3 µm, 25 cm × 4.6 mm, solvent A: water containing 0.1% TFA, solvent B: MeCN containing 0.1% TFA, flow rate: 1.0 mL/min, gradient: 10–90% gradient of solvent B over 30 min). The digestion assay was performed in two independent experiments, and the average values from them were calculated. […]
Figure 4 Chemical stability of the peptides 1–8 against proteinase K. Each peptide was incubated with 0.002% (v/v) proteinase K for the indicated times at 37 °C, and the residuals were evaluated by LC-MS. […]

Sequence of Proteinase K (P06873 106-384): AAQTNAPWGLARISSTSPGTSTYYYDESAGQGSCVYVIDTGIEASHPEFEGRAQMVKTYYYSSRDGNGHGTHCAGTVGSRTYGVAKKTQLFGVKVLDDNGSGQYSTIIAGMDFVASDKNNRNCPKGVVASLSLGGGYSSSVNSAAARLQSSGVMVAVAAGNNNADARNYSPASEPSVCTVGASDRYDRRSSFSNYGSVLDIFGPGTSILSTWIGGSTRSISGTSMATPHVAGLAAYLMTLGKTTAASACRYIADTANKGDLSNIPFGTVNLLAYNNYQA

For CC[C@H](C)[C@H](NC(=O)CN)C(=O)N[C@@H](CCCCN)C(=O)N[C@@H](CCCCN)C(=O)N[C@@H](Cc1ccccc1)C(=O)N[C@@H](CC(C)C)C(=O)N[C@@H](CCCCN)C(=O)N[C@@H](CO)C(=O)NC(C)(C)C(=O)N[C@@H](CCCCN)C(=O)N[C@@H](CCCCN)C(=O)N[C@@H](Cc1ccccc1)C(=O)N[C@H](C(=O)N[C@@H](CCCCN)C(=O)NC(C)(C)C(=O)N[C@@H](Cc1ccccc1)C(=O)N[C@@H](CCCCN)C(N)=O)C(C)C [Peptide 1] (H-GIKKFLKS[Aib]KKFVK[Aib]FK-NH2), the “MIC, S. aureus, Gram(+)” value (S. aureus NBRC 13276) was 12.5 µM (≈ 24.9 µg/mL), the “Hemolysis (concentration at which hemolytic activity is exhibited)” value (human red blood cells) was 100 µM and the “MIC, MDRP” value [1] was 6.25 µM (≈ 12.5 µg/mL). The “MIC, P. aeruginosa, Gram(−)” value (P. aeruginosa NBRC 13275) was 3.125 µM (≈ 6.24 µg/mL), the “MIC, E. Coli DH5α, Gram(−)” value (Escherichia coli DH5α) was 1.56 µM (≈ 3.11 µg/mL) and the “Cleavage site upon proteinase K treatment” value (Proteinase K) was “between 5th Phe and 6th Leu and 16th Phe and 17th Lys residues; also recorded: between the fifth Phe and sixth Leu residues”.
